Experimental data reported in patent US8299060B2, “Trans-4-[[(5S)-5-[[[3,5-bis(trifluoromethyl)phenyl]methyl] (2-methyl-2H-tetrazol-5-yl)amino]-2,3,4,5-tetrahydro-7,9-dimethyl-1H-1-benzazepin-1-yl]methyl]-cyclohexanecarboxylic acid” (Eli Lilly and Company, priority 2009, dated 2012).
Marks after values point to notes of the source that are not given here.

How the values were obtained:
[1] = target: T1, human CETP (Homo sapiens, UniProt P11597); assay: In vivo assay of CETP activity; set-up: species or system transgenic mice that express human CETP; conditions: 30 mpk oral dose, 79.5% corn oil, 20% oleic acid, 0.5% Lubrafil; CETP and Apo A1 heterozygote mice; 8 hr; read-out: % CETP Inhib 8 hr
T1 construct: plasma from the treated animals is used as the CETP source in the assay; tissue Taconic; host or cells: plasma of transgenic mice expressing human CETP (CETP and Apo A1 heterozygotes)
T1 sequence (P11597 18-493): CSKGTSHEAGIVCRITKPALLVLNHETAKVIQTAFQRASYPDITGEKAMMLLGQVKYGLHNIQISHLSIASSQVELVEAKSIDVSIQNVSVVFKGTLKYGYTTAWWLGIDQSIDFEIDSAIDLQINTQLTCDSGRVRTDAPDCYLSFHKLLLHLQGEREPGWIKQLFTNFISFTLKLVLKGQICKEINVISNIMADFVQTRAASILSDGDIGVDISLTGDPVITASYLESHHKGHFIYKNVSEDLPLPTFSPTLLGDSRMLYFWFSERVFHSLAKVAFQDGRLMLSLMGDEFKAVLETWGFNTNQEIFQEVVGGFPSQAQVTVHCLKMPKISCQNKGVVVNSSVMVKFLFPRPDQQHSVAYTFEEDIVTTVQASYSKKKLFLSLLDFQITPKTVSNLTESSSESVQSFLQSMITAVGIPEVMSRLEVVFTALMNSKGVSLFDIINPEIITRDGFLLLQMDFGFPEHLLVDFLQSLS
Text: An in vitro Scintillation Proximity Assay (SPA) has been used to evaluate the ability of compounds of this invention to inhibit the transfer of radiolabeled cholesterol esters between HDL and LDL. This assay monitors the inhibition of the transfer of [^3H]cholesterol esters from HDL (Amersham) to biotinylated LDL (Amersham) by a CETP source. The CETP source for this assay can be produced by AV-12 cells that have been created to express human CETP. The radiolabeled cholesterol ester is transferred in a HEPES-NaCl based buffer, after thirty minutes incubation the reaction is stopped and the biotinylated LDL is bound to streptavidin/scintillant coated SPA beads (Amersham). The radioactive signal is measured in a Packard 96-well scintillation TopCounter with window settings fully open. A decrease in radioactive signal from the LDL relative to a standard indicates the ability of compounds to inhibit the activity of CETP.
Syrian Golden Hamsters, which express endogenous CETP, can be used to assess the activity of the compounds in vivo. […] The CETP activity can be determined by a method similar to that described above for the in vitro CETP activity assay, with the modification that plasma from the treated animals is used as the CETP source in the assay.

[2] = Hygroscopicity and degradation on storage at ambient temperature; format: physicochemical; conditions: stored at ambient temperature
[3] = test system: HDL cholesterol; assay: In vivo assay of plasma lipids (HDL cholesterol elevation); set-up: species or system transgenic mice that express human CETP; conditions: 30 mpk oral dose, 79.5% corn oil, 20% oleic acid, 0.5% Lubrafil, CETP and Apo A1 heterozygote mice
Method: Syrian Golden Hamsters, which express endogenous CETP, can be used to assess the activity of the compounds in vivo. Test compounds are administered orally 30 mpk dose in a 79.5% corn oil, 20% oleic acid, 0.5% Lubrafil vehicle to a strain of transgenic mice that express human CETP (female or male CETP and Apo A1 heterozygote mice Taconic, Germantown, N.Y.). At various times after dosing, ranging from 4 h to 48 h, blood/plasma can be obtained. The CETP activity can be determined by a method similar to that described above for the in vitro CETP activity assay, with the modification that plasma from the treated animals is used as the CETP source in the assay.
Activity of compounds of this invention in vivo can be evaluated by comparing the level of elevation of HDL cholesterol relative to a control by a given amount of a compound in a CETP-containing animal species. The test compounds are administered as described above for the in vivo assay of CETP activity. […] The HDL cholesterol levels in the serum can be determined by known procedures using HDL-C plus reagents (Roche/Hitachi, Indianapolis, Ind.) with a clinical chemistry analyzer (Roche/Hitachi, Indianapolis, Ind.). Additional serum lipids can be analyzed by enzymatic methods. Lipids in the VLDL, LDL and HDL fractions are analyzed by enzymatic methods after precipitation or size exclusion chromatography. […]

[4] = Chemical stability: acid stability in 0.1N HCl at 40° C.; format: physicochemical
Method: Table 6 below lists the chemical stability of BCCA free acid as well as that of selected Examples 31, 89, 153, and 175 disclosed in WO 06/002342, renumbered below as compounds 13, 14, 15, and 16, respectively. […] This increased acid stability for BCCA free acid is not taught and cannot be predicted considering WO 06/002342.
Sample preparations: 1) Compound Stock: 0.9 mg/mL in ACN; 2) 100 μL stock+700 μL ACN+1 mL media (0.1N HCl, 50 mM PO4, pH 8, and 0.3% H2O2); 3) Place vials in heated (40° C.) autosampler, inject at 4 hour intervals for 16 or 24 hours.
Column: Alltech Alltima Phenyl, 3 μm, 4.6×150 mm or Waters XTerra MS C18, 3.5 μm, 4.6×150 mm Column temperature: 50° C., Injection volume: 10 μL. Detection: UV @ 226, 254 or 266 nm (depending on compound) Flow rate: 1.5 mL/min. Mobile phase: 0.1% TFA in 50% water/50% ACN (may need to adjust % ACN to keep compound peak retention time ˜5 min.) final sample conc. 0.05 mg/mL; ACN content 44%.

[5] = IV and PO pharmacokinetics in male Sprague Dawley rats; format: in vivo; conditions: 3 mg/kg PO; for F % (AUC Extrap.) ± sd: 1 mg/kg IV; for Cmax / Tmax: rat, plasma
Method: This following is to determine the pharmacokinetic parameters, including oral bioavailability, following a single 1 mg/kg intravenous bolus or a 3 mg/kg oral dose administration of the compound to male Sprague Dawley rats (n=4) in a crossover study design. The intravenous vehicle is 20% solutol microemulsion/80% deionized water. The oral vehicle is povidone USP 10%/SLS 0.5%/QS deionized water. In the intravenous arm, blood samples are collected at 0.08, 0.25, 0.5, 1, 2, 5, 8, 12, and 24 hours post-dose. In the oral arm, blood samples are collected at 0, 0.25, 0.5, 1, 2, 5, 8, 12, and 24 hours post-dose. Plasma is obtained by centrifugation, placed on ice, and frozen until samples are shipped on dry ice to Bioanalytical Systems, Inc. (BASi; West Lafayette, Ind.) for bioanalytical analysis. Concentrations of BCCA are determined by LC/MS/MS and pharmacokinetic parameters are calculated using a validated software program (Watson, Version 7.1). Other vehicles can be used to evaluate the bioavailability of BCCA including: 1% w/v sodium carboxymethyl cellulose, 0.25% w/v polysorbate 80 (Tween 80) and 0.05% 0.05% Dow Corning Antifoam 1510-US in purified water or; 1% w/v sodium carboxymethyl cellulose, 0.5% w/v sodium laurate sulfate, and 0.05% 0.05% Dow Corning Antifoam 1510-US in purified water in purified water each used either with or without sonification to facilitate dissolution of the compounds.

Compound | hygroscopicity [2] | Acid Stability, percent remaining, 8 hrs [4] | Acid Stability, percent remaining, 24 hrs [4] | also measured
Cc1cc(C)c2c(c1)[C@@H](N(Cc1cc(C(F)(F)F)cc(C(F)(F)F)c1)c1nnn(C)n1)CCCN2C[C@H]1CC[C@H](C(=O)O)CC1 [Ex 1, Trans-4-[[(5S)-5-[[[3,5-bis(trifluoromethyl)phenyl]methyl](2-methyl-2H-tetrazol-5-yl)amino]-2,3,4,5-tetrahydro-7,9-dimethyl-1H-1-benzazepin-1-yl]methyl]-cyclohexanecarboxylic acid] | non-hygroscopic | 97.3% | 91.3% | inhibition at 30 mg/kg [1]: 98.6%; % HDL cholesterol increase at 8 hr [3]: 129.7. %; F % (AUC Extrap.) ± sd [5]: 38 ± 4%; Cmax [5]: 0.208 ± 0.041 µg/mL; Tmax [5]: 3.5 ± 1.7 h
Cc1cc2c(cc1C(F)(F)F)N(Cc1ccc(C(=O)O)cc1)CCC[C@@H]2N(Cc1cc(C(F)(F)F)cc(C(F)(F)F)c1)c1nnn(C)n1 [Compound 14, (S)-4-{5-[(3,5-Bis-trifluoromethyl-benzyl)-(2-methyl-2H-tetrazol-5-yl)-amino]-7-methyl-8-trifluoromethyl-2,3,4,5-tetrahydro-benzo[b]azepin-1-ylmethyl}-benzoic acid] | – | 52% | 13.4% | –
CC(C)(C)N.CCO.Cc1cc(C)c2c(c1)[C@@H](N(Cc1cc(C(F)(F)F)cc(C(F)(F)F)c1)c1nnn(C)n1)CCCN2C[C@H]1CC[C@H](C(=O)O)CC1.Cc1cc(C)c2c(c1)[C@@H](N(Cc1cc(C(F)(F)F)cc(C(F)(F)F)c1)c1nnn(C)n1)CCCN2C[C@H]1CC[C@H](C(=O)O)CC1 (relative stereo) [Example 15, Trans-4-[[(5S)-5-[[[3,5-bis(trifluoromethyl)phenyl]methyl](2-methyl-2H-tetrazol-5-yl)amino]-2,3,4,5-tetrahydro-7,9-dimethyl-1H-1-benzazepin-1-yl]methyl]-cyclohexanecarboxylic acid hemi tert-butylamine salt hemi ethanol (2:1:1) solvate in crystalline form] | non-hygroscopic | – | – | –
[O-][n+]1ccccc1[S-].[O-][n+]1ccccc1[S-].[Zn+2] [zinc salt] | essentially non-hygroscopic | – | – | –
Cc1cc2c(cc1C(F)(F)F)N(C1CCC(C(=O)O)CC1)CCC[C@@H]2N(Cc1cc(C(F)(F)F)cc(C(F)(F)F)c1)c1nnn(C)n1 (stereo partly drawn) [Compound 16] | – | 37.8% | – | Acid Stability, percent remaining after 16 hrs ([4]; 16 hrs (footnote *)): 13.4* Percent
Cc1cc(C)c2c(c1)[C@@H](N(Cc1cc(C(F)(F)F)cc(C(F)(F)F)c1)c1nnn(C)n1)CCCN2C[C@H]1CC[C@H](C(=O)O)CC1.O (relative stereo) [Example 5, Trans-4-[[(5S)-5-[[[3,5-bis(trifluoromethyl)phenyl]methyl](2-methyl-2H-tetrazol-5-yl)amino]-2,3,4,5-tetrahydro-7,9-dimethyl-1H-1-benzazepin-1-yl]methyl]-cyclohexanecarboxylic acid hydrate in crystalline form] | non-hygroscopic | – | – | –
CC(C)(C)N.CC(C)O.Cc1cc(C)c2c(c1)[C@@H](N(Cc1cc(C(F)(F)F)cc(C(F)(F)F)c1)c1nnn(C)n1)CCCN2C[C@H]1CC[C@H](C(=O)O)CC1 (relative stereo) [Example 14, Trans-4-[[(5S)-5-[[[3,5-bis(trifluoromethyl)phenyl]methyl](2-methyl-2H-tetrazol-5-yl)amino]-2,3,4,5-tetrahydro-7,9-dimethyl-1H-1-benzazepin-1-yl]methyl]-cyclohexanecarboxylic acid tert-butylamine isopropyl alcohol (1:1:1) solvate] | non-hygroscopic | – | – | –
Cc1cc2c(cc1C(F)(F)F)N(C[C@H]1CC[C@H](CC(=O)O)CC1)CCC[C@@H]2N(Cc1cc(C(F)(F)F)cc(C(F)(F)F)c1)c1nnn(C)n1 [Compound 13, (4-{5-[(3,5-Bis-trifluoromethyl-benzyl)-(2-methyl-2H-tetrazol-5-yl)-amino]-7-methyl-8-trifluoromethyl-2,3,4,5-tetrahydro-benzo[b]azepin-1-ylmethyl}-cyclohexyl)-acetic acid] | – | 14.5% | 0% | –
Cc1cc(C)c2c(c1)[C@@H](N(Cc1cc(C(F)(F)F)cc(C(F)(F)F)c1)c1nnn(C)n1)CCCN2C[C@H]1CC[C@H](C(=O)O)CC1.O (relative stereo) [Example 3, Trans-4-[[(5S)-5-[[[3,5-bis(trifluoromethyl)phenyl]methyl](2-methyl-2H-tetrazol-5-yl)amino]-2,3,4,5-tetrahydro-7,9-dimethyl-1H-1-benzazepin-1-yl]methyl]-cyclohexanecarboxylic acid•Hydrate] | – | – | – | degradation on storage [2]: minor or very little degradation
Cc1cc2c(c(C)c1C(F)(F)F)N(CC1CCC(CC(=O)O)CC1)CCC[C@@H]2N(Cc1cc(C(F)(F)F)cc(C(F)(F)F)c1)c1nnn(C)n1 (stereo partly drawn) [Compound 15, reference compound] | – | 100.4% | 99.1% | F % (AUC Extrap.) ± sd [5]: 8 ± 3%; Cmax [5]: 0.085 ± 0.043 µg/mL; Tmax [5]: 5 h
